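96-well plates; 48 h exposure; 5 concentrations. Endpoints by linear interpolation between flanking doses. Not reached: highest tested concentration assigned. At the GI50, growth is halved. TGI marks complete inhibition of growth.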
Tests used:
Assay in all cases: NCI anticancer screen, dose series, 48 h
[1] = test system: 786-0 renal
[2] = test system: A498 renal
[3] = test system: A549 NSCLC
[4] = test system: ACHN renal
[5] = test system: BT-549 breast
[6] = test system: CAKI-1 renal
[7] = test system: CCRF-CEM leukemia
[8] = test system: COLO 205 colon
[9] = test system: DU-145 prostate
[10] = test system: EKVX NSCLC
[11] = test system: HCC-2998 colon
[12] = test system: HCT-116 colon
[13] = test system: HCT-15 colon
[14] = test system: HL-60(TB) leukemia
[15] = test system: HOP-62 NSCLC
[16] = test system: HOP-92 NSCLC
[17] = test system: HS 578T breast
[18] = test system: HT29 colon
[19] = test system: IGROV1 ovarian
[20] = test system: K-562 leukemia
[21] = test system: KM12 colon
[22] = test system: LOX IMVI melanoma
[23] = test system: M14 melanoma
[24] = test system: MALME-3M melanoma
[25] = test system: MCF7 breast
[26] = test system: MDA-MB-231 breast
[27] = test system: MDA-MB-435
[28] = test system: MOLT-4 leukemia
[29] = test system: NCI-H226 lung
[30] = test system: NCI-H23 lung
[31] = test system: NCI-H460 lung
[32] = test system: NCI-H522 lung
[33] = test system: NCI/ADR-RES ovarian
[34] = test system: OVCAR-3 ovarian
[35] = test system: OVCAR-4 ovarian
[36] = test system: OVCAR-5 ovarian
[37] = test system: OVCAR-8 ovarian
[38] = test system: PC-3 prostate
[39] = test system: RPMI-8226 leukemia
[40] = test system: RXF 393 renal
[41] = test system: SF-268 CNS
[42] = test system: SF-295 CNS
[43] = test system: SF-539 CNS
[44] = test system: SK-MEL-2 melanoma
[45] = test system: SK-MEL-28 melanoma
[46] = test system: SK-MEL-5 melanoma
[47] = test system: SK-OV-3 ovarian
[48] = test system: SN12C renal
[49] = test system: SNB-19 CNS
[50] = test system: SNB-75 CNS
[51] = test system: SR leukemia
[52] = test system: SW-620 colon
[53] = test system: T-47D breast
[54] = test system: TK-10 renal
[55] = test system: U251 CNS
[56] = test system: UACC-257 melanoma
[57] = test system: UACC-62 melanoma
[58] = test system: UO-31 renal

SMILES: COc1cc(/C=N/Nc2ncnc3[nH]ncc23)ccc1O
- GI50 [1]: 11.8 µM
- TGI [1]: > 25 µM
- GI50 [2]: 8.93 µM
- TGI [2]: > 25 µM
- GI50 [3]: > 25 µM
- TGI [3]: > 25 µM
- GI50 [4]: 8.01 µM
- TGI [4]: > 25 µM
- GI50 [5]: > 23.6 µM
- TGI [5]: > 25 µM
- GI50 [6]: 6.93 µM
- TGI [6]: > 25 µM
- GI50 [7]: 14.8 µM
- TGI [7]: > 25 µM
- GI50 [8]: > 25 µM
- TGI [8]: > 25 µM
- GI50 [9]: > 23.9 µM
- TGI [9]: > 25 µM
- GI50 [10]: > 23.2 µM
- TGI [10]: > 25 µM
- GI50 [11]: > 25 µM
- TGI [11]: > 25 µM
- GI50 [12]: 19.6 µM
- TGI [12]: > 25 µM
- GI50 [13]: 24.6 µM
- TGI [13]: > 25 µM
- GI50 [14]: > 23.6 µM
- TGI [14]: > 25 µM
- GI50 [15]: 19.8 µM
- TGI [15]: > 25 µM
- GI50 [16]: 6.77 µM
- TGI [16]: > 22.1 µM
- GI50 [17]: 6.53 µM
- TGI [17]: > 20.5 µM
- GI50 [18]: 12.6 µM
- TGI [18]: > 25 µM
- GI50 [19]: 8.97 µM
- TGI [19]: > 25 µM
- GI50 [20]: 9.94 µM
- TGI [20]: > 25 µM
- GI50 [21]: 12.6 µM
- TGI [21]: > 25 µM
- GI50 [22]: 9.26 µM
- TGI [22]: > 25 µM
- GI50 [23]: 15.7 µM
- TGI [23]: > 25 µM
- GI50 [24]: 11.7 µM
- TGI [24]: > 25 µM
- GI50 [25]: 11.4 µM
- TGI [25]: > 25 µM
- GI50 [26]: > 20.1 µM
- TGI [26]: > 25 µM
- GI50 [27]: 7.95 µM
- TGI [27]: > 25 µM
- GI50 [28]: 12.4 µM
- TGI [28]: > 25 µM
- GI50 [29]: > 25 µM
- TGI [29]: > 25 µM
- GI50 [30]: > 21.7 µM
- TGI [30]: > 25 µM
- GI50 [31]: 24.7 µM
- TGI [31]: > 25 µM
- GI50 [32]: 11 µM
- TGI [32]: > 25 µM
- GI50 [33]: > 25 µM
- TGI [33]: > 25 µM
- GI50 [34]: > 22.7 µM
- TGI [34]: > 25 µM
- GI50 [35]: > 25 µM
- TGI [35]: > 25 µM
- GI50 [36]: > 19.4 µM
- TGI [36]: > 25 µM
- GI50 [37]: > 25 µM
- TGI [37]: > 25 µM
- GI50 [38]: > 20.6 µM
- TGI [38]: > 25 µM
- GI50 [39]: > 25 µM
- TGI [39]: > 25 µM
- GI50 [40]: 5.24 µM
- TGI [40]: > 18.9 µM
- GI50 [41]: 21.4 µM
- TGI [41]: > 25 µM
- GI50 [42]: 18.6 µM
- TGI [42]: > 25 µM
- GI50 [43]: 7.78 µM
- TGI [43]: > 21.8 µM
- GI50 [44]: 6.53 µM
- TGI [44]: 17.1 µM
- GI50 [45]: > 20.1 µM
- TGI [45]: > 25 µM
- GI50 [46]: 17.5 µM
- TGI [46]: > 25 µM
- GI50 [47]: 17.9 µM
- TGI [47]: > 25 µM
- GI50 [48]: 13.6 µM
- TGI [48]: > 25 µM
- GI50 [49]: > 25 µM
- TGI [49]: > 25 µM
- GI50 [50]: 4.83 µM
- TGI [50]: > 16.6 µM
- GI50 [51]: 13.1 µM
- TGI [51]: > 25 µM
- GI50 [52]: > 25 µM
- TGI [52]: > 25 µM
- GI50 [53]: 6.82 µM
- TGI [53]: > 25 µM
- GI50 [54]: 9.15 µM
- TGI [54]: > 22.1 µM
- GI50 [55]: 24.7 µM
- TGI [55]: > 25 µM
- GI50 [56]: > 21.8 µM
- TGI [56]: > 25 µM
- GI50 [57]: 11.3 µM
- TGI [57]: > 25 µM
- GI50 [58]: 5.96 µM
- TGI [58]: > 25 µM

SMILES: Cc1cc(-c2ncc(-c3cccnc3)cc2/C=C/c2ccccc2)cnc1-c1cccnc1
- GI50 [1]: 6.05 µM
- TGI [1]: > 100 µM
- GI50 [2]: 2.31 µM
- TGI [2]: > 30.9 µM
- GI50 [3]: 3.92 µM
- TGI [3]: > 100 µM
- GI50 [4]: 3.91 µM
- TGI [4]: > 100 µM
- GI50 [5]: 3.05 µM
- TGI [5]: 20.8 µM
- GI50 [6]: 4.25 µM
- TGI [6]: > 100 µM
- GI50 [7]: 1.17 µM
- TGI [7]: 7.76 µM
- TGI [8]: > 100 µM
- GI50 [9]: 3.35 µM
- TGI [9]: > 100 µM
- GI50 [10]: 3.39 µM
- TGI [10]: > 100 µM
- GI50 [11]: > 25.4 µM
- TGI [11]: > 100 µM
- GI50 [12]: 4.22 µM
- TGI [12]: > 100 µM
- GI50 [13]: 2.95 µM
- TGI [13]: > 100 µM
- GI50 [14]: 2.35 µM
- TGI [14]: 12.3 µM
- GI50 [15]: 4.45 µM
- TGI [15]: 97.5 µM
- GI50 [16]: 2.96 µM
- TGI [16]: > 26 µM
- GI50 [17]: 3.39 µM
- TGI [17]: > 100 µM
- GI50 [18]: 3.52 µM
- TGI [18]: > 100 µM
- GI50 [19]: 5.39 µM
- TGI [19]: > 100 µM
- GI50 [20]: 3.28 µM
- TGI [20]: > 100 µM
- GI50 [21]: 3.3 µM
- TGI [21]: > 100 µM
- GI50 [22]: 3.12 µM
- TGI [22]: 19.7 µM
- GI50 [23]: 4.24 µM
- TGI [23]: > 100 µM
- GI50 [24]: 2.81 µM
- TGI [24]: 16.9 µM
- GI50 [25]: 3.02 µM
- TGI [25]: > 100 µM
- GI50 [26]: 4.76 µM
- TGI [26]: > 100 µM
- TGI [27]: > 100 µM
- GI50 [28]: 1.47 µM
- TGI [28]: 5.99 µM
- GI50 [29]: 2.62 µM
- TGI [29]: 7.61 µM
- GI50 [30]: 4.59 µM
- TGI [30]: > 100 µM
- GI50 [31]: 2.28 µM
- TGI [31]: 5.27 µM
- GI50 [32]: 3.01 µM
- TGI [32]: 14.9 µM
- GI50 [33]: 3.62 µM
- TGI [33]: > 100 µM
- GI50 [34]: 3.48 µM
- TGI [34]: 37.7 µM
- GI50 [35]: > 21.1 µM
- TGI [35]: > 100 µM
- GI50 [36]: > 72.6 µM
- TGI [36]: > 100 µM
- GI50 [37]: 3.81 µM
- TGI [37]: > 100 µM
- GI50 [38]: 3.21 µM
- TGI [38]: > 100 µM
- GI50 [39]: 2.53 µM
- TGI [39]: 16.7 µM
- GI50 [40]: 4.13 µM
- TGI [40]: 75.3 µM
- GI50 [41]: 5.81 µM
- TGI [41]: > 100 µM
- GI50 [42]: 5.62 µM
- TGI [42]: 52.1 µM
- GI50 [43]: 11.5 µM
- TGI [43]: > 33.2 µM
- GI50 [44]: 4.93 µM
- TGI [44]: > 66.9 µM
- GI50 [45]: > 20.2 µM
- TGI [45]: > 100 µM
- GI50 [46]: 1.46 µM
- TGI [46]: 3.02 µM
- GI50 [47]: 19.1 µM
- TGI [47]: > 100 µM
- GI50 [48]: 3.59 µM
- TGI [48]: > 100 µM
- GI50 [49]: 5.32 µM
- TGI [49]: > 100 µM
- GI50 [50]: 5.23 µM
- TGI [50]: > 63.4 µM
- GI50 [51]: 2.69 µM
- TGI [51]: > 28.5 µM
- GI50 [52]: 4.41 µM
- TGI [52]: > 100 µM
- GI50 [53]: 2.4 µM
- TGI [53]: > 30.8 µM
- TGI [54]: > 100 µM
- GI50 [55]: 4.54 µM
- TGI [55]: > 100 µM
- GI50 [56]: 5.08 µM
- TGI [56]: > 100 µM
- GI50 [57]: 3.91 µM
- TGI [57]: > 83.9 µM
- GI50 [58]: 2.27 µM
- TGI [58]: 9.04 µM

Source: PubChem BioAssay (NCI)
